In patent US11786543B2, “Compositions comprising decitabine and tetrahydrouridine and uses thereof” (The Board of Trustees of the University of Illinois, priority 2008, dated 2023):
Several values for one entry are separate records, joined by “and”; a condition that tells them apart may be missing. Equal entries are not always repeated. Entries after “also recorded” stand apart in the source; their conditions may differ.

Assays:
SCD patients = details: human, in vivo; cited from earlier work
[1] = system: normal hematopoietic precursors; assay type: cell-based; details: DAC 0.5 μM, equimolar Ara-C, clinically relevant levels of HU; measured D6
[2] = system: normal CD34+ hematopoietic cells; assay: DNA damage (Fast Micromethod for DNA scission, γH2AX flow cytometry); details: for DNA damage (Fast Micro-method for DNA scission, γH2AX): decitabine 0.5 μM D1,3,5, Ara-C 0.5 μM D1,3,5, hydroxyurea 500 μM D1-5, measured D6
[3] = system: MA9 xenograft model of human leukemia; assay: MA9 xenograft model of human leukemia, survival; assay type: in vivo, mice; details: intraperitoneal decitabine alone, I mg/m^2 3×/week
Experimental: The MA9 xenograft model of human leukemia was treated with intraperitoneal decitabine alone (I mg/m^2 3×/week). Decitabine increased survival by approximately 20%, but all mice succumbed to leukemia (FIG. 10). […] CDA is the most important pharmacologic barrier to successful translation of in vitro findings into in vivo therapy. The invention addresses this barrier to effective clinical translation of the in vitro observations.

baboons = assay: Pharmacodynamic responses (HbF %, neutrophil counts) to decitabine with or without THU in baboons; assay type: in vivo, baboon; design: ANC nadir: unit not given here
Experimental: Fetal hemoglobin expression, HbF %, pre and post treatment with the indicated dose of decitabine. […] Oral treatment was with decitabine or a slightly modified decitabine (decitabine-mesylate—Dac-m).
Decitabine was administered at the doses indicated in two consecutive blocks of 5 days each. THU at the indicated doses was administered 60 minutes before each decitabine dose.

PUER cells = assay: PUER model of Pu.1-mediated differentiation; assay type: cell-based, murine
Excerpt: Terminal differentiation is critically dependent on lineage-determining transcription factors such as PU.1. […] The murine PUER cell-line is derived from Pu.1 knock-out cells, which have been transduced with a retroviral vector which expresses Pu.1 fused to the estrogen-receptor. Addition of the estrogen agonist tamoxifen (OHT) to these cells causes Pu.1 to be functionally reintroduced into the cell through translocation into the nucleus, and triggers terminal differentiation.
Flow cytometry was used to measure F4/80 as a marker of terminal macrophage differentiation and c-Kit as marker of stem-cells.

CD34 AMLI-ETO cells = assay: Cell counts, morphology and colony formation; assay type: cell-based
Excerpt: (§1) The Kasumi-1 cell-line is derived from a patient with AMLI-ETO leukemia and represents a late-stage model of transformation and malignant evolution.

normal CD34+ cells = assay: Cell counts, morphology and colony formation; assay type: cell-based
Excerpt: as §1

[4] = system: primary leukemia cells from patients; details: decitabine 0.5 μM added 2×/week
Kasumi-1 cells = assay: Cell counts and morphology; assay type: cell-based, human
Excerpt: as §1

[5] = system: Reno-1 renal cell cancer xenograft
Experimental: In an effort to apply the proposed formulation and regimen to treat different cancer histologies, a renal cell cancer cell-line (Reno-1) was developed from a surgical sample of renal cancer and used in a xeno-transplantation experiment. […] The percentage of necrosis in each tissue section was evaluated in a blinded fashion.

DNMTI = DNMTI (Homo sapiens, UniProt P26358); assay: DNMTI depletion, Q-dot immunofluorescence assay in normal CD34+ hematopoietic precursor cells; assay type: cell-based; design: Normal CD34+ hematopoietic precursor cells were isolated from cord-blood; endogenous in cells; host or cells: normal human CD34+ hematopoietic precursor cells from cord blood
Sequence of DNMTI (P26358 whole entry): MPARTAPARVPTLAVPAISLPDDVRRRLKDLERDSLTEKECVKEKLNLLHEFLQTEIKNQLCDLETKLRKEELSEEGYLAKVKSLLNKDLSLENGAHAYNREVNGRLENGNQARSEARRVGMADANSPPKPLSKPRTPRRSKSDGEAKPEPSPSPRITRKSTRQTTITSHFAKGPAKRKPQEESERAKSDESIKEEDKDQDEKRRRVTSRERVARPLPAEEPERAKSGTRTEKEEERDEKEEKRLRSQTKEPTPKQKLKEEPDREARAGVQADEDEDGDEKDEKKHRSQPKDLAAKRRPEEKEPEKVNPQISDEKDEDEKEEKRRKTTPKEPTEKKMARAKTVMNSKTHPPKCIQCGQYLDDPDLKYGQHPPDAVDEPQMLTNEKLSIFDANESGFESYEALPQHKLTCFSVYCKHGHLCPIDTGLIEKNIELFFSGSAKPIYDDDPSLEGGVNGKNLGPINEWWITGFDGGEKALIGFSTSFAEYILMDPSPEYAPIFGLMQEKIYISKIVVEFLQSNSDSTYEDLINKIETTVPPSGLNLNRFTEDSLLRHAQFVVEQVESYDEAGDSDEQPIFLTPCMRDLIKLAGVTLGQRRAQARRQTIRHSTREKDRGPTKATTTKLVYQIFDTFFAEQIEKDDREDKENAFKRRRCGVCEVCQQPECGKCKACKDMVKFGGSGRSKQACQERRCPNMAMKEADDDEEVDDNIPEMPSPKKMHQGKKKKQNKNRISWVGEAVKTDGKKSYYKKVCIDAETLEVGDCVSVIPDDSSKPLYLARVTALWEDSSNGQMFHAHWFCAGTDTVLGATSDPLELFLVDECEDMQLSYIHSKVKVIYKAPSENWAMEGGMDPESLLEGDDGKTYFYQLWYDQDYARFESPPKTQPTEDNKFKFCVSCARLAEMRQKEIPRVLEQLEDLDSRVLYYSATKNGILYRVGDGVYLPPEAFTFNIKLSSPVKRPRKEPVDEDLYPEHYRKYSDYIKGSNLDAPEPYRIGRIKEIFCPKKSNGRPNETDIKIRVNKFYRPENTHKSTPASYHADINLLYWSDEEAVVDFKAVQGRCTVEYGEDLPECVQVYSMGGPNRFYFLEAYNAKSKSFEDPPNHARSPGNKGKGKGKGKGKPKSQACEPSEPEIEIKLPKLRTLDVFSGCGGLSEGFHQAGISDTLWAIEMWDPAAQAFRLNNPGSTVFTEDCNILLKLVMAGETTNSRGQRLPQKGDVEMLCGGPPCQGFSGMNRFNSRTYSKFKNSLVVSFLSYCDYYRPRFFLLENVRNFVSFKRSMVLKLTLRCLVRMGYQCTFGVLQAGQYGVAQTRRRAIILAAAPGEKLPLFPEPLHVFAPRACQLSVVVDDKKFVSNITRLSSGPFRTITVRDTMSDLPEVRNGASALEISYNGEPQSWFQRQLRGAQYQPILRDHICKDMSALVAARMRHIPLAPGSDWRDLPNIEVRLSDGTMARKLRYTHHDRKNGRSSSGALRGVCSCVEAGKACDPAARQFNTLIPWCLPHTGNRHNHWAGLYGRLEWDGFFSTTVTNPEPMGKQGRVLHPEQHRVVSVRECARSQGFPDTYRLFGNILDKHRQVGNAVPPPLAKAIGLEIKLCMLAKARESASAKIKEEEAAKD
Experimental: Decitabine is shown herein to deplete DNMTI without causing measurable DNA damage. Decitabine at a concentration of 0.2-0.5 μM depletes DNMTI in normal hematopoietic precursor cells (data not shown). Normal CD34+ hematopoietic precursor cells were isolated from cord-blood. A Q-dot based immunofluorescence assay quantifies DNMTI depletion by various doses of decitabine. Q-dot conjugated 2° ab against anti-DNMTI 1° ab allows quantification of DNMTI depletion in normal human CD34+ hematopoietic cells exposed to various levels of decitabine. DNMTI was quantified in 500 cells for each treatment condition. DAPI was used to stain the nuclei Image-quant software is used to quantify the DNMTI by the Mean Intensity Fluorescence (MIF) variable. Decitabine levels were assessed in μM.
The kinetics of DNMTI depletion and recovery in normal hematopoietic precursors exposed to a IX addition of DAC 0.5 μM. DNMTI was quantified with a Q dot-based assay. Nuclei were stained with DAPI. […] Measurement was performed on D6.

[6] = cited from earlier work
Reno-1 cells = assay: Morphology of Giemsa-stained Reno-1 cells cultured with decitabine; assay type: cell-based
[7] = system: normal hematopoietic precursors; assay: Cell cycle status (propidium iodide flow cytometry)
[8] = cited from earlier work; remark: listed apart in the source
[9] = system: subjects with HU refractory SCD; details: cited from earlier work
[10] = system: solid tumor cell-lines (renal cancer, small cell lung cancer, hepatocellular cancer, prostate cancer, bladder cancer); assay: Differentiation of solid tumor cell-lines; assay type: cell-based; details: decitabine 0.5 μM
[11] = Oral 9.35 mg/kg/d, individual baboons, listed as Dac, 9.35 mg/kg/day
[12] = Oral 18.7 mg/kg/d, individual baboons
[13] = SQ 0.52 mg/kg/d, individual baboons, listed as Dac
[14] = non-DNA-damaging DNMTI-depleting decitabine
[15] = last 20 of 36 wks, individual subjects
[16] = last 20 weeks, base-line 3.12 ± 2.75

For `NC(=O)NO` [hydroxyurea], the “HU compliant patients in whom HbF levels are not increased” value (SCD patients) is given as “approximately 40%”, the “apoptosis (annexin V-FITC and 7AAD double staining)” value [1] is given as “cause significant apoptosis and cell-death” and the “DNA damage (Fast Micro-method for DNA scission, γH2AX)” value [2] is given as “cause significant DNA damage”.

In the case of `Nc1ncn([C@H]2C[C@H](O)[C@@H](CO)O2)c(=O)n1` [Decitabine, 5-aza-2′-deoxycytidine], the increase in survival [3] was “approximately 20%”, the Post-HbF % (baboons; Oral 0.3 mg/kg/d 60 minutes after oral THU 20 mg/kg, baboon 6974) was 28.4% and the Post-HbF % (baboons; Oral 1.42 mg/kg/d 60 minutes after oral THU 20 mg/kg, baboon 7001) was 61.6%. The Post-HbF % (baboons; Oral 9.35 mg/kg/d without THU, two blocks of 5 days, individual baboons, listed as Dac, 9.35 mg/kg/day) was 17.4% and 40.5%, the ANC nadir (baboons; [11]) was 1331 and 749 and the Post-HbF % (baboons; [11]) was 17.4% and 72.0%. For the same compound, the ANC nadir (baboons; [12]) was 1969, the Post-HbF % (baboons; [12]) was 68.1% and the ANC nadir (baboons; [13]) was 1491 and 524 and 1320 and 1668. For the same compound, the Post-HbF % (baboons; [13]) was 66.1% and 86.3% and 76.3% and 68.8%, the gene expression (PUER cells; decitabine added 6 hours after OHT) was “increased pro-differentiation gene expression” and the differentiation and proliferation (PUER cells; decitabine added concurrent with Pu.1 activation (OHT)) was “impaired Pu.1-mediated terminal differentiation and preserved some cell proliferation”. The morphology (CD34 AMLI-ETO cells) was “morphologically differentiated”, the colony forming ability (CD34 AMLI-ETO cells; data not shown) was “colony forming ability is abrogated” and the cell counts (CD34 AMLI-ETO cells; [14]) was “leukemia cells decline”. For the same compound, the colony-forming ability (normal CD34+ cells) was “maintains colony-forming ability”, the morphology (normal CD34+ cells; data not shown) was “retained primitive morphology” and the cell counts (normal CD34+ cells; non-DNA-damaging DNMTI-depleting decitabine, Ara-C equimolar) was “proliferation of normal cells”. For the same compound, the “terminal myelomonocytic differentiation (Giemsa staining)” value [4] was 12 of 14, the morphology (Kasumi-1 cells) was “morphologically differentiated” and the cell counts (Kasumi-1 cells; [14]) was “leukemia cells decline”. The tumor volume ([5]; SQ 3×/week, I mg/ni2, starting on Day 9, p<0.001 vs PBS or Sunitinib) was “significantly decreased tumor volume”, the “necrosis in H&E stained tumor sections” value ([5]; data not shown) was “demonstrated necrosis” and the “toxicity in the mice (weight, appearance, blood counts)” value ([5]; mouse, in vivo) was “without evidence of toxicity”. The “threshold concentration required to deplete DNMT” value (DNMTI) was “approximately 0.2 μM”, the “decitabine concentration that depletes DNMTI” value (DNMTI; normal hematopoietic precursor cells, data not shown) was 0.2 to 0.5 µM and the half-life in vivo [6] was under 0.333 h. For the same compound, the “cell morphology in vitro” value (Reno-1 cells) was “increase in size and demonstrate prominent nuclear chromatin clumps”, the “time of rebound increase in S-phase/G2M after drug exposure” value [7] was “approximately 48 h” and the cell cycle effect ([7]; non-DNA-damaging, DNMTI-depleting levels) was “transient cell-cycle arrest followed by rebound hyperproliferation”. For the same compound, the in vitro half-life [8] was 5 to 9 h, the “DAC concentration required to induce measurable DNA damage” value ([2]; 24 hours after exposure, γH2AX, Fast Micromethod) was over 0.5 µM and the “DNA damage and apoptosis” value ([2]; DAC 1 μM) was “caused measurable DNA damage and apoptosis”. For the same compound, the “DNA damage (γH2AX, Fast Micromethod) or apoptosis (annexin)” value ([2]; DAC up to 0.5 μM) was “did not cause measurable DNA damage”, the “DNA damage (H2AX) in combination with THU” value ([2]; DAC up to 0.5 μM with THU 0.1 or 100 μM, 24 hours, listed as DAC) was “did not cause significant DNA damage; also recorded: did not significantly increase DNA damage” and the “DNA damage (Fast Micro-method for DNA scission, γH2AX)” value [2] was “does not cause measurable DNA damage”. The DNA damage ([2]; decitabine 1.0 μM) was “causes measurable DNA damage”, the ANC nadir ([9]; at optimal drug dose for each subject) was over 1.5e+09 L⁻¹ and the “individual maximal F-cell numbers, range” value ([9]; during the trial) was 58-87%. For the same compound, the “maximal F-cell numbers, average over all 7 subjects” value ([9]; during the trial) was 69±10.12%, the non-hematologic toxicity ([9]; in vivo) was “no non-hematologic toxicity occurred” and the “HbF Avg” value ([9]; last 20 of 36 wks, IV 0.3 mg/kg/day cycles, individual subjects, 0.3 mg/kg/day) was 10.80 ± 2.05% and 16.42 ± 2.81% and 16.70 ± 2.55% and 12.40 ± 1.25% and 14.55 ± 1.32% and 12.75 ± 2.28%. The “HbF Max” value [9, 15] was 14.4% (2×) and 24.6% and 23.2% and 16.3% and 17.2%, the “Total Hemoglobin Avg” value [9, 15] was 8.28 ± 0.52 g/dL and 8.91 ± 0.57 g/dL and 8.92 ± 0.79 g/dL and 9.05 ± 0.48 g/dL and 9.37 ± 0.60 g/dL and 8.34 ± 0.55 g/dL and the “Total Hemoglobin Max” value [9, 15] was 9.0 g/dL and 9.6 g/dL (2×) and 10.4 g/dL and 10.3 g/dL and 9.5 g/dL. The “average ANC” value ([9]; last 20 weeks of treatment, pretreatment 4.6±1.56) was 4.2±1.35 ×109/L, the “HbF Avg, Mean ± SD of subjects” value [9, 16] was 13.93±2.35% and the “HbF Max, Mean ± SD of subjects” value [9, 16] was 18.35% and 18.35 ± 4.46%. The “Total Hemoglobin Avg, Mean ± SD of subjects” value ([9]; last 20 weeks) was 8.81 ± 0.42 g/dL, the “Total Hemoglobin Max, Mean ± SD of subjects” value ([9]; last 20 weeks) was 9.7 ± 0.53 g/dL and 9.73 ± 0.53 g/dL and the “lowest ANC” value ([9]; two HU non-responder subjects) was at least 2e+09 L⁻¹. The “differentiation (morphologic changes)” value [10] was “terminally differentiated” and the “early apoptosis (Annexin staining)” value [10] was “did not cause early apoptosis”.
